Test results: patent US12723063B2, “GIPR-agonist compounds” (Eli Lilly and Company, priority 2019, dated 2026)
*1 amine or outer side, *2 acyl side, *3 side chain or, on linkers, in order; H or OH if unused. Where a SMILES comes first, the peptide text is derived from it. Side-chain parts run from the residue outwards. [ ]: non-standard residue; d: D form. The star is where a group is joined. C20 diacid = O=C(O)CCCCCCCCCCCCCCCCCCC(=O)*; C18 diacid = O=C(O)CCCCCCCCCCCCCCCCC(=O)*; γGlu = O=C(O)[C@H](CCC(=O)[*:2])N[*:1]; 4Pal = N[C@@H](Cc1ccncc1)C(=O)O; αMeL = CC(C)C[C@](C)(N)C(=O)O; Orn = NCCC[C@H](N)C(=O)O; AEEA = NCCOCCOCC(=O)O; Aib = CC(C)(N)C(=O)O

How the values were obtained:
[1] = target: T1, human glucose-dependent insulinotropic peptide receptor (GIPR) (Homo sapiens, UniProt P48546); assay: cAMP functional assay (HTRF) in HEK293 cells in presence of 0.1% casein; assay type: cell-based; conditions: HEK293 cells expressing human GIPR, geometric mean, read-out: hGIPR cAMP Rel EC50 nM (SEM, n)
T1 construct: expressed in transfected cells; host or cells: HEK293
T1 sequence (P48546 22-466): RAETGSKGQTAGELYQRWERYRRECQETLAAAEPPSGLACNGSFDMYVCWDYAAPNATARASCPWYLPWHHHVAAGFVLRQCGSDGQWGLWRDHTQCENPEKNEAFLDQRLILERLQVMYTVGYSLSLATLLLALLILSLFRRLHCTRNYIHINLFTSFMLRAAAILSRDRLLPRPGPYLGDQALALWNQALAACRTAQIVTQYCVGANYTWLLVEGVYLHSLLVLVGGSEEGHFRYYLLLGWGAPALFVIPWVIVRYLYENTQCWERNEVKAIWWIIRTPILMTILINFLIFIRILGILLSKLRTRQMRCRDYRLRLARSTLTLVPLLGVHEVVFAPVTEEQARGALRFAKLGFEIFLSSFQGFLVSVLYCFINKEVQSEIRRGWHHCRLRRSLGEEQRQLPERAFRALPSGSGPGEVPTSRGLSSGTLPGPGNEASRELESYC

[2] = target: T2, human glucagon receptor (GcgR) (Homo sapiens, UniProt P47871); assay: as above; assay type: cell-based; conditions: HEK293 cells expressing human GcgR, geometric mean, read-out: hGcgR cAMP Rel EC50 nM (SEM, n)
T2 construct: expressed in transfected cells; host or cells: HEK293
T2 sequence (P47871 26-477): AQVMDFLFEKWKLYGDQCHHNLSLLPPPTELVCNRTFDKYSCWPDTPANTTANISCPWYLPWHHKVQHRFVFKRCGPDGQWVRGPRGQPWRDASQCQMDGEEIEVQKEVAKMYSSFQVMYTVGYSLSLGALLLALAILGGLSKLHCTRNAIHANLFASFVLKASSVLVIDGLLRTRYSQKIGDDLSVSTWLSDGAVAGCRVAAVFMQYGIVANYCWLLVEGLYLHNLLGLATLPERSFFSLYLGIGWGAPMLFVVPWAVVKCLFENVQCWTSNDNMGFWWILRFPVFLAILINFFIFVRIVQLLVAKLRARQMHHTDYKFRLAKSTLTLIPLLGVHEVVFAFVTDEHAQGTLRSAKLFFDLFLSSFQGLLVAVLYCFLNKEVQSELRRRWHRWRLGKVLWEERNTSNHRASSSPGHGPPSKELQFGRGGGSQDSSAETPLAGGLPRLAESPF

| Structure (SMILES) | EC50 [1] [nM] | EC50 [2] [nM] |
| --- | --- | --- |
| CC[C@H](C)[C@H](NC(=O)[C@H](CCCCN)NC(=O)[C@H](CC(=O)O)NC(=O)[C@H](CC(C)C)NC(=O)[C@](C)(CC(C)C)NC(=O)[C@@H](NC(=O)[C@H](CO)NC(=O)[C@H](Cc1ccc(O)cc1)NC(=O)[C@H](CC(=O)O)NC(=O)[C@H](CO)NC(=O)[C@@H](NC(=O)[C@H](Cc1ccccc1)NC(=O)[C@@H](NC(=O)CNC(=O)[C@H](CCC(=O)O)NC(=O)C(C)(C)NC(=O)[C@@H](N)Cc1ccc(O)cc1)[C@@H](C)O)[C@@H](C)CC)[C@@H](C)CC)C(=O)N[C@@H](Cc1c[nH]cn1)C(=O)N[C@@H](CCC(N)=O)C(=O)NC(C)(C)C(=O)N[C@@H](CCC(=O)O)C(=O)N[C@@H](Cc1ccccc1)C(=O)N[C@H](C(=O)N[C@@H](CCC(=O)O)C(=O)N[C@@H](Cc1ccncc1)C(=O)N[C@@H](CCCCNC(=O)COCCOCCNC(=O)COCCOCCNC(=O)CC[C@H](NC(=O)CCCCCCCCCCCCCCCCCCC(=O)O)C(=O)O)C(=O)N[C@@H](CC(C)C)C(=O)N[C@@H](CCC(=O)O)C(=O)NCC(=O)NCC(=O)N1CCC[C@H]1C(=O)N[C@@H](CO)C(=O)N[C@@H](CO)C(=O)NCC(=O)N[C@@H](C)C(=O)N1CCC[C@H]1C(=O)N1CCC[C@H]1C(=O)N1CCC[C@H]1C(=O)N[C@@H](CO)C(N)=O)C(C)C [Example 100] (H-Y[Aib]EGTFISDYSI[αMeL]LDKIHQ[Aib]EFVE[4Pal]K([AEEA-AEEA-γGlu-C20 diacid])LEGGPSSGAPPPS-NH2) | 0.0224 | > 5000 |
| CC[C@H](C)[C@H](NC(=O)[C@H](CCCN)NC(=O)[C@H](CC(=O)O)NC(=O)[C@H](CC(C)C)NC(=O)[C@](C)(CC(C)C)NC(=O)[C@@H](NC(=O)[C@H](CO)NC(=O)[C@H](Cc1ccc(O)cc1)NC(=O)[C@H](CC(=O)O)NC(=O)[C@H](CO)NC(=O)[C@@H](NC(=O)[C@H](Cc1ccccc1)NC(=O)[C@@H](NC(=O)CNC(=O)[C@H](CCC(=O)O)NC(=O)C(C)(C)NC(=O)[C@@H](N)Cc1ccc(O)cc1)[C@@H](C)O)[C@@H](C)CC)[C@@H](C)CC)C(=O)N[C@@H](Cc1c[nH]cn1)C(=O)N[C@@H](CCC(N)=O)C(=O)NC(C)(C)C(=O)N[C@@H](CC(=O)O)C(=O)N[C@@H](Cc1ccccc1)C(=O)N[C@H](C(=O)N[C@H](CCC(=O)O)C(=O)N[C@@H](Cc1ccc(O)cc1)C(=O)N[C@@H](CCCCNC(=O)COCCOCCNC(=O)COCCOCCNC(=O)CC[C@H](NC(=O)CCCCCCCCCCCCCCCCCCC(=O)O)C(=O)O)C(=O)N[C@@H](CC(C)C)C(=O)N[C@@H](CCC(=O)O)C(=O)NCC(=O)NCC(=O)N1CCC[C@H]1C(=O)N[C@@H](CO)C(=O)N[C@@H](CO)C(=O)NCC(=O)N[C@@H](C)C(=O)N1CCC[C@H]1C(=O)N1CCC[C@H]1C(=O)N1CCC[C@H]1C(=O)N[C@@H](CO)C(N)=O)C(C)C [Example 101] | 0.0396 | > 5000 |
| CC[C@H](C)[C@H](NC(=O)[C@H](CCCN)NC(=O)[C@H](CC(=O)O)NC(=O)[C@H](CC(C)C)NC(=O)[C@](C)(CC(C)C)NC(=O)[C@@H](NC(=O)[C@H](CO)NC(=O)[C@H](Cc1ccc(O)cc1)NC(=O)[C@H](CC(=O)O)NC(=O)[C@H](CO)NC(=O)[C@@H](NC(=O)[C@H](Cc1ccccc1)NC(=O)[C@@H](NC(=O)CNC(=O)[C@H](CCC(=O)O)NC(=O)C(C)(C)NC(=O)[C@@H](N)Cc1ccc(O)cc1)[C@@H](C)O)[C@@H](C)CC)[C@@H](C)CC)C(=O)N[C@@H](Cc1c[nH]cn1)C(=O)N[C@@H](CCC(N)=O)C(=O)NC(C)(C)C(=O)N[C@@H](CCC(=O)O)C(=O)N[C@@H](Cc1ccccc1)C(=O)N[C@H](C(=O)N[C@H](CCC(=O)O)C(=O)N[C@@H](Cc1ccc(O)cc1)C(=O)N[C@@H](CCCCNC(=O)COCCOCCNC(=O)COCCOCCNC(=O)CC[C@H](NC(=O)CCCCCCCCCCCCCCCCCCC(=O)O)C(=O)O)C(=O)N[C@@H](CC(C)C)C(=O)N[C@@H](CCC(=O)O)C(=O)NCC(=O)NCC(=O)N1CCC[C@H]1C(=O)N[C@@H](CO)C(=O)N[C@@H](CO)C(=O)NCC(=O)N[C@@H](C)C(=O)N1CCC[C@H]1C(=O)N1CCC[C@H]1C(=O)N1CCC[C@H]1C(=O)N[C@@H](CO)C(N)=O)C(C)C [Example 102] (H-Y[Aib]EGTFISDYSI[αMeL]LD[Orn]IHQ[Aib]EFV[dE]YK([AEEA-AEEA-γGlu-C20 diacid])LEGGPSSGAPPPS-NH2) | 0.0166 | > 5000 |
| CC[C@H](C)[C@H](NC(=O)[C@H](CCCN)NC(=O)[C@H](CC(=O)O)NC(=O)[C@H](CC(C)C)NC(=O)[C@](C)(CC(C)C)NC(=O)[C@@H](NC(=O)[C@H](CO)NC(=O)[C@H](Cc1ccc(O)cc1)NC(=O)[C@H](CC(=O)O)NC(=O)[C@H](CO)NC(=O)[C@@H](NC(=O)[C@H](Cc1ccccc1)NC(=O)[C@@H](NC(=O)CNC(=O)[C@H](CCC(=O)O)NC(=O)C(C)(C)NC(=O)[C@@H](N)Cc1ccc(O)cc1)[C@@H](C)O)[C@@H](C)CC)[C@@H](C)CC)C(=O)N[C@@H](Cc1c[nH]cn1)C(=O)N[C@@H](CCC(N)=O)C(=O)NC(C)(C)C(=O)N[C@@H](CC(=O)O)C(=O)N[C@@H](Cc1ccccc1)C(=O)N[C@H](C(=O)N[C@@H](CCC(=O)O)C(=O)N[C@@H](Cc1ccc(O)cc1)C(=O)N[C@@H](CCCCNC(=O)COCCOCCNC(=O)COCCOCCNC(=O)CC[C@H](NC(=O)CCCCCCCCCCCCCCCCC(=O)O)C(=O)O)C(=O)N[C@@H](CC(C)C)C(=O)N[C@@H](CCC(=O)O)C(=O)NCC(=O)NCC(=O)N1CCC[C@H]1C(=O)N[C@@H](CO)C(=O)N[C@@H](CO)C(=O)NCC(=O)N[C@@H](C)C(=O)N1CCC[C@H]1C(=O)N1CCC[C@H]1C(=O)N1CCC[C@H]1C(=O)N[C@@H](CO)C(N)=O)C(C)C [Example 103] (H-Y[Aib]EGTFISDYSI[αMeL]LD[Orn]IHQ[Aib]DFVEYK([AEEA-AEEA-γGlu-C18 diacid])LEGGPSSGAPPPS-NH2) | 0.0129 | > 5000 |
| CC[C@H](C)[C@H](NC(=O)[C@H](CCCN)NC(=O)[C@H](CC(=O)O)NC(=O)[C@H](CC(C)C)NC(=O)[C@](C)(CC(C)C)NC(=O)[C@@H](NC(=O)[C@H](CO)NC(=O)[C@H](Cc1ccc(O)cc1)NC(=O)[C@H](CC(=O)O)NC(=O)[C@H](CO)NC(=O)[C@@H](NC(=O)[C@H](Cc1ccccc1)NC(=O)[C@@H](NC(=O)CNC(=O)[C@H](CCC(=O)O)NC(=O)C(C)(C)NC(=O)[C@@H](N)Cc1ccc(O)cc1)[C@@H](C)O)[C@@H](C)CC)[C@@H](C)CC)C(=O)N[C@@H](Cc1c[nH]cn1)C(=O)N[C@@H](CCC(N)=O)C(=O)NC(C)(C)C(=O)N[C@@H](CCC(=O)O)C(=O)N[C@@H](Cc1ccccc1)C(=O)N[C@H](C(=O)N[C@@H](CCC(=O)O)C(=O)N[C@@H](Cc1ccc(O)cc1)C(=O)N[C@@H](CCCCNC(=O)COCCOCCNC(=O)COCCOCCNC(=O)CC[C@H](NC(=O)CCCCCCCCCCCCCCCCCCC(=O)O)C(=O)O)C(=O)N[C@@H](CC(C)C)C(=O)N[C@@H](CCC(=O)O)C(=O)N[C@@H](C)C(=O)NCC(=O)N1CCC[C@H]1C(=O)N[C@@H](CO)C(=O)N[C@@H](CO)C(=O)NCC(=O)N[C@@H](C)C(=O)N1CCC[C@H]1C(=O)N1CCC[C@H]1C(=O)N1CCC[C@H]1C(=O)N[C@@H](CO)C(N)=O)C(C)C [Example 104] (H-Y[Aib]EGTFISDYSI[αMeL]LD[Orn]IHQ[Aib]EFVEYK([AEEA-AEEA-γGlu-C20 diacid])LEAGPSSGAPPPS-NH2) | 0.0165 | > 5000 |
| CC[C@H](C)[C@H](NC(=O)[C@H](CCCN)NC(=O)[C@H](CC(=O)O)NC(=O)[C@H](CC(C)C)NC(=O)[C@](C)(CC(C)C)NC(=O)[C@@H](NC(=O)[C@H](CO)NC(=O)[C@H](Cc1ccc(O)cc1)NC(=O)[C@H](CC(=O)O)NC(=O)[C@H](CO)NC(=O)[C@@H](NC(=O)[C@H](Cc1ccccc1)NC(=O)[C@@H](NC(=O)CNC(=O)[C@H](CCC(=O)O)NC(=O)C(C)(C)NC(=O)[C@@H](N)Cc1ccc(O)cc1)[C@@H](C)O)[C@@H](C)CC)[C@@H](C)CC)C(=O)N[C@@H](Cc1c[nH]cn1)C(=O)N[C@@H](CCC(N)=O)C(=O)NC(C)(C)C(=O)N[C@@H](CCC(=O)O)C(=O)N[C@@H](Cc1ccccc1)C(=O)N[C@H](C(=O)N[C@@H](CCC(=O)O)C(=O)N[C@@H](Cc1ccc(O)cc1)C(=O)N[C@@H](CCCCNC(=O)COCCOCCNC(=O)COCCOCCNC(=O)CC[C@H](NC(=O)CCCCCCCCCCCCCCCCCCC(=O)O)C(=O)O)C(=O)N[C@@H](CC(C)C)C(=O)N[C@@H](CCC(=O)O)C(=O)N[C@H](C(=O)NCC(=O)N1CCC[C@H]1C(=O)N[C@@H](CO)C(=O)N[C@@H](CO)C(=O)NCC(=O)N[C@@H](C)C(=O)N1CCC[C@H]1C(=O)N1CCC[C@H]1C(=O)N1CCC[C@H]1C(=O)N[C@@H](CO)C(N)=O)[C@@H](C)O)C(C)C [Example 105] (H-Y[Aib]EGTFISDYSI[αMeL]LD[Orn]IHQ[Aib]EFVEYK([AEEA-AEEA-γGlu-C20 diacid])LETGPSSGAPPPS-NH2) | 0.0179 | > 5000 |
